For 46 molecules, IC50 results are on record in patent publication US8604016B2, “Heterocyclic inhibitors of glutaminase” (Calithera Biosciences Inc., priority 2011, dated 2013).

Some results are limits rather than exact numbers.

The target in the test is recombinant form of Glutaminase 1 (GAC) (Homo sapiens, UniProt O94925). The test can be described thus: Recombinant Enzyme Assay (GAC coupled to GDH, NADH absorbance, no preincubation). Type of test: biochemical. To be noted: no preincubation; read-out: GAC Delta N2 IC50 no preinc. The method, then:
Enzymatic reaction was started with the addition of 50 μL of enzyme solution (50 mM Tris-HCl pH 8.0, 0.2 mM EDTA, 150 mM K2HPO4, 0.1 mg/ml BSA, 1 mM DTT, 10 ppm antifoam, 4 units/ml GDH, 4 mM adenosine diphosphate, and 4 nM GAC) and read in a Molecular Devices M5 plate reader at 20° C. The plate reader was configured to read absorbance (λ=340 nm) in kinetic mode for 15 minutes. Data was recorded as milli-absorbance units per minute and slopes were compared to a control compound and a DMSO-only control on the same plate. Compounds with slopes less than the DMSO control were considered inhibitors and plate variability was assessed using the control compound.
Regarding `Cc1nccn1Cc1cccc(CC(=O)Nc2nnc(CCCCc3nnc(NC(=O)Cc4cccc(Cn5ccnc5C)c4)s3)s2)c1` [Compound 296], the IC50 came out at 0.1 µM.
The figure for `O=C(CC(C(=O)O)c1ccccc1)Nc1nnc(CCCCc2nnc(NC(=O)CC(C(=O)O)c3ccccc3)s2)s1` (stereo not shown) [Compound 177] is 1.1 µM.
`CC(C)(C)c1ccc(CC(=O)Cc2nnc(CCCCc3nnc(NC(=O)Cc4ccc(C(C)(C)C)cc4)s3)s2)cc1` [Compound 191]: the IC50 is more than 20 µM.
The value for `O=C(OCC(C(=O)Nc1nnc(CCCCc2nnc(NC(=O)C(COC(=O)C3CCN(C(=O)OCc4ccccc4)CC3)c3ccccc3)s2)s1)c1ccccc1)C1CCN(C(=O)OCc2ccccc2)CC1` (stereo not shown) [Compound 301] was more than 20 µM.
The value for `O=C(CC1CC1)Nc1nnc(CCSCCc2nnc(NC(=O)CC3CC3)s2)s1` [Compound 83] was 3.9 µM.
The figure for `O=C(Cc1ccco1)Nc1nnc(CCSCCc2nnc(NC(=O)Cc3ccco3)s2)s1` [Compound 82] is 0.8 µM; for `O=C1CC(C(=O)Nc2nnc(CCCCc3nnc(NC(=O)C4CC(=O)c5ccccc54)s3)s2)c2ccccc21` (stereo not shown) [Compound 64] it is 1.3 µM; for `O=C(Nc1nnc(CCCCc2nnc(NC(=O)[C@@H](O)[C@H](O)c3ccccc3)s2)s1)[C@@H](O)[C@H](O)c1ccccc1` [Compound 226] it is 2.3 µM.
As for `CC(C(=O)Nc1nnc(CCSCCc2nnc(N)s2)s1)c1ccccc1` (stereo not shown) [Compound 20], the IC50 amounted to 6.6 µM.
With `O=C(Nc1nnc(CCSCCc2nnc(NC(=O)c3coc4ccccc34)s2)s1)c1coc2ccccc12` [Compound 218], the IC50 was more than 20 µM.
The value for `O=C(Cn1cccn1)Nc1nnc(CCCCc2nnc(NC(=O)Cn3cccn3)s2)s1` [Compound 60] was 24 µM; that for `O=C(Cc1c(F)cccc1F)Nc1nnc(CCCCc2nnc(NC(=O)Cc3c(F)cccc3F)s2)s1` [Compound 293] was 0.24 µM.
For the molecule `CCOc1ccccc1CC(=O)Nc1nnc(CCCCc2nnc(NC(=O)Cc3ccccc3OCC)s2)s1` [Compound 300], the IC50 was determined as 0.16 µM.
The value for `O=C(Cc1cccc(-c2cccnc2)c1)Nc1nnc(CCCCc2nnc(NC(=O)Cc3cccc(-c4cccnc4)c3)s2)s1` [Compound 312] was more than 20 µM; that for `CC(C)[C@H](N)C(=O)Nc1nnc(CCCCc2nnc(NC(=O)[C@@H](N)C(C)C)s2)s1` [Compound 73] was more than 50 µM; that for `COc1cccc(C(CO)C(=O)Nc2nnc(CCSCc3nnc(NC(=O)C(CO)c4cccc(OC)c4)s3)s2)c1` (stereo not shown) [Compound 258] was 0.19 µM.
The figure for `O=C(CC1CC1)Nc1nnc(CCCCc2nnc(NC(=O)CC3CC3)s2)s1` [Compound 85] is 1.5 µM; for `COc1ccc(CC(=O)Nc2nnc(CCSCCc3nnc(NC(=O)Cc4ccc(OC)cc4)s3)s2)cc1` [Compound 161] it is 0.15 µM; for `N[C@@H](CO)C(=O)Nc1nnc(CCSCCc2nnc(NC(=O)[C@@H](N)CO)s2)s1` [Compound 137] it is more than 20 µM.
`CO[C@@H](C(=O)Nc1nnc(CCCCc2nnc(NC(=O)[C@H](OC)c3ccccc3)s2)s1)c1ccccc1` [Compound 147]: the IC50 came out at 0.62 µM.
The value for `CS(=O)(=O)c1cccc(CC(=O)Nc2nnc(CCSCCc3nnc(NC(=O)Cc4cccc(S(C)(=O)=O)c4)s3)s2)c1` [Compound 158] was 0.22 µM; that for `CC(C(=O)Nc1nnc(CCSCCc2nnc(NC(=O)C(C)c3ccccc3Cl)s2)s1)c1ccccc1Cl` (stereo not shown) [Compound 261] was 0.7 µM; that for `CC(=O)OCC(=O)Nc1nnc(CCSCCc2nnc(NC(=O)CO)s2)s1` [Compound 254] was more than 20 µM.
The value for `O=C(CCN1CCOCC1)OC(C(=O)Nc1nnc(CCCCc2nnc(NC(=O)C(OC(=O)CCN3CCOCC3)c3cccc(Cl)c3)s2)s1)c1cccc(Cl)c1` (stereo not shown) [Compound 332] was 3.3 µM; that for `O=C(Cc1ccccc1)Nc1nnc(CCCCc2nnc(NC(=O)C(O)(CO)c3ccccc3)s2)s1` (stereo not shown) [Compound 280] was 0.29 µM.
The figure for `COc1ccccc1CC(=O)Nc1nnc(CCSCCc2nnc(NC(=O)C(CO)c3ccccc3OC)s2)s1` (stereo not shown) [Compound 246] is 0.4 µM; for `O=C(Cc1ccccc1F)Nc1nnc(CCCCc2nnc(NC(=O)Cc3ccccc3F)s2)s1` [Compound 292] it is 0.12 µM; for `COc1ccccc1C(C)C(=O)Nc1nnc(CCSCCc2nnc(NC(=O)C(C)c3ccccc3OC)s2)s1` (stereo not shown) [Compound 263] it is 0.32 µM.
For `O=C(COc1ccccc1)Nc1nnc(CCCCc2nnc(NC(=O)COc3ccccc3)s2)s1` [Compound 43], the IC50 came out at 2.3 µM.
The value for `O=C(Cc1cc2ccccc2s1)Nc1nnc(CCCCc2nnc(NC(=O)Cc3cc4ccccc4s3)s2)s1` [Compound 233] was 15 µM; that for `COc1cccc(CC(=O)Nc2nnc(CCSCCc3nnc(NC(=O)Cc4cccc(OC)c4OC)s3)s2)c1OC` [Compound 259] was 0.23 µM.
The value for `Nc1nnc(CCSCCc2nnc(NC(=O)[C@@H]3CCCN3C(=O)C(F)(F)F)s2)s1` [Compound 23] was more than 50 µM; that for `CC1(C)OC(=O)[C@@H](CC(=O)Nc2nnc(CCCCc3nnc(NC(=O)C[C@H]4OC(C)(C)OC4=O)s3)s2)O1` [Compound 103] was 19 µM.
The value for `C[C@@H](O)[C@H](N)C(=O)Nc1nnc(CCSCCc2nnc(NC(=O)[C@@H](N)[C@@H](C)O)s2)s1` [Compound 139] was more than 20 µM.
As for `O=C(Cc1ccccc1)Nc1nnc(CSCc2nnc(NC(=O)Cc3ccccc3)s2)s1` [Compound 145], the IC50 is more than 20 µM.
The figure for `CCOC(=O)Nc1nnc(CCSCCc2nnc(NC(=O)OCC)s2)s1` [Compound 356] is more than 20 µM.
In the case of `O=C(Nc1nnc(CCCCc2nnc(NC(=O)C(c3ccccc3)N3CCNCC3)s2)s1)C(c1ccccc1)N1CCNCC1` (stereo not shown) [Compound 77], the IC50 was found to be 6.1 µM.
With `N[C@@H](CO)C(=O)Nc1nnc(CCCCc2nnc(NC(=O)[C@@H](N)CO)s2)s1` [Compound 140], the IC50 was 3.4 µM.
The value for `CC(C)(C)OC(=O)N[C@@H](C(=O)Nc1nnc(CCSCCc2nnc(NC(=O)[C@H](NC(=O)OC(C)(C)C)c3ccccc3)s2)s1)c1ccccc1` [Compound 46] was more than 50 µM.
The figure for `O=C(CO)Nc1nnc(CCSCCc2nnc(NC(=O)CO)s2)s1` [Compound 253] is 21 µM.
The figure for `O=C(Cc1ccccc1)Nc1nnc(CCCCc2nnc(NC(=O)OCc3ccccc3)s2)s1` [Compound 374] is 0.26 µM; for `O=C(Nc1nnc(CCCCc2nnc(NC(=O)C3Cc4cc(Cl)ccc4O3)s2)s1)C1Cc2cc(Cl)ccc2O1` (stereo not shown) [Compound 120] it is 1.8 µM.
Regarding `CC(C)[C@H](NC(=O)OC(C)(C)C)C(=O)Nc1nnc(CCSCCc2nnc(NC(=O)Cc3ccccc3)s2)s1` [Compound 33], the IC50 was 13 µM.
The figure for `O=C(Nc1nnc(CCSCCc2nnc(NC(=O)C3CC4CCC3C4)s2)s1)C1CC2CCC1C2` (stereo not shown) [Compound 38] is more than 50 µM; for `O=C(CC1CCCNC1)Nc1nnc(CCCCc2nnc(NC(=O)CC3CCCNC3)s2)s1` (stereo not shown) [Compound 130] it is more than 20 µM; for `CC(CO)(CO)C(=O)Nc1nnc(CCCCc2nnc(NC(=O)Cc3cccc(F)c3)s2)s1` [Compound 152, N,N′-(5-(4-(5-(2-(3-fluorophenyl)acetamido)-1,3,4-thiadiazol-2-yl)butyl)-1,3,4-thiadiazol-2-yl)-3-hydroxy-2-(hydroxymethyl)-2-methylpropanamide] it is 0.73 µM.
